Earlier results in patent US11066478B2, “Intravesical therapy for bladder cancer” (PHOTOCURE ASA, priority 2015, dated 2021).

Experiments:
bladder cancer = details: patients who underwent cystectomy for bladder cancer, HAL-guided TUR prior to cystectomy
NMIBC = details: patients with NMIBC

## CCCCCCOC(=O)CCC(=O)CN [HAL, n-hexyl 5-amino-4-oxo-pentanoate]
Bladder cancer; comparison 56.6%
  3-year overall survival (OS): 65.0%
Bladder cancer; white light TUR alone 58.2%
  3-year recurrence-free survival (RFS): 69.8%
NMIBC; HAL-guided TUR
  rate of residual tumor after TUR: reduced the rate of residual tumor
NMIBC; HAL-guided TUR compared to white light TUR alone
  recurrence free survival (RFS) rates: superior recurrence free survival (RFS) rates
NMIBC; HAL-guided cystoscopy and TUR versus white light alone
  detection of papillary tumors and flat carcinoma-in-situ (CIS) lesions: increased detection
